According to US9746463B2 (THE TRUSTEES OF COLUMBIA UNIVERSITY IN THE CITY OF NEW YORK, priority 2006, dated 2017):
Blank lines part the entries; values can stand above or below the compound they belong to. Bridge positions count the residues as written; N and C are the ends. Square brackets hold non-standard residues; d marks the D form. Primed or numbered codes have the meaning given here. Ends that are not written are not given here. Gla′ = carboxylated glutamic acid

What was measured:
[1] = system: Adiponectin expression in WT adipocytes; experiment: Adiponectin expression in adipocytes treated with osteocalcin (real time PCR); format: cell-based, mouse
Description: (§1) FIG. 7A-O. Esp−/− Mice Are a Model of Increased Osteocalcin Bioactivity. (FIGS. 7A-G) Comparison between 6-week-old WT, Esp−/, Ocn+/−, and Esp−/−; Ocn+/− mice. (FIG. 7A) Blood glucose levels. (FIG. 7B) Serum insulin levels. (FIG. 7C) Serum adiponectin levels. (FIG. 7D) GTT. (FIG. 7E) ITT. (FIG. 7F) GSIS test. (FIG. 7G) Quantification of the number of Ki67-immunoreactive cells in pancreatic islets. […] (FIG. 7K) Expression of Adiponectin in WT adipocytes cultured in presence of vehicle or of 1 ng/ml of commercially available carboxylated osteocalcin (Immunotopics) or bacterially produced uncarboxylated osteocalcin. (FIG. 7L) Expression of Insulin and Cyclin D1 in WT islets cultured in presence of 0.3 ng/ml of bacterially produced uncarboxylated osteocalcin or vehicle. (FIG. 7M) Metabolic parameters and total serum osteocalcin levels in control and obese patients. (FIG. 7N-O) Quantification of carboxylated osteocalcin (HA-bound osteocalcin) in control and obese patients. In (FIGS. 7A)-(C) and (FIGS. G)-(L): *p<0.05 versus WT (Student's t test); in (FIG. D)-(F), °p<0.05 versus WT and *p % 0.001 versus WT (ANOVA followed by post hoc analysis).
FIG. 15. […] Wt adipocytes were treated for 4 hours with recombinant full-length osteocalcin (1-46) or a truncated form (1-36) or vehicle. Adiponectin expression was then quantified by real time PCR.
Primary adipocytes were isolated from epididymal fat pads by collagenase digestion. Briefly, minced adipose tissue was digested by 1 mg/ml collagenase P in KRP Buffer (20 mM HEPES, 120 mM NaCl, 6 mM KCl, 1.2 mM MgSO4, 1 mM CaCl2, 0.6 mM Na2HPO4, 0.4 mM NaH2PO4, 2.5 mM D-glucose, 2% BSA, pH 7.4) for 1 h at 37° C. The isolated cells were washed twice with KRP Buffer before being cultured in αMEM/1% FBS at 37° C. in 5% CO2.
Gene expression analyses. All gene expression analyses were performed using real time PCR. DNAse I-treated total RNA was converted to cDNA with the SuperScript III kit (Invitrogen). Real-time PCR were performed using the Taq SYBR Green Supermix with ROX (Biorad) on an MX3000 instrument (Stratagene); beta-actin amplification was used as an internal reference for each sample. All primers were from SuperArray.
A fragment of uncarboxylated osteocalcin is biologically active. Experiments were performed to test whether truncated osteocalcin was as effective as full-length uncarboxylated osteocalcin in stimulating adiponectin secretion from mouse adipocytes in vitro. Wild type adipocytes were treated for 4 hours with recombinant full-length osteocalcin (1-46) or a truncated form (1-36) (having a deletion of the first ten amino acids from the C-terminal end) or vehicle. Adiponectin expression was then quantified by real time PCR. […]

[2] = system: gamma-carboxylation of osteocalcin in osteoblasts; experiment: Osteocalcin/hydroxyapatite (HA) binding assay of medium from warfarin-treated osteoblasts; format: cell-based, mouse
Description: as §1
Cell culture experiments. […]
Osteocalcin/hydroxyapatite (HA) binding assay. […] Osteocalcin present in eluates and initial samples was measured by IRMA. […]

[3] = system: Adiponectin expression in WT adipocytes; experiment: Co-culture of adipocytes with warfarin-treated osteoblasts: adiponectin expression; format: cell-based, mouse; conditions: warfarin-treated vs vehicle-treated osteoblasts (FIG. 7J)
Description: as §1
Co-culture of osteoblasts and adipocytes to study regulation of adiponectin expression/secretion by osteocalcin. A co-culture assay was developed between osteoblasts and adipocytes to analyze modifications in adiponectin expression. […]

wild type osteoblasts = experiment: Isoproterenol on wild type osteoblasts: mRNA levels by quantitative PCR; format: cell-based
Excerpt: The sympathetic nervous system positively regulates OST-PTP expression. It was discovered that sympathetic nervous system (SNS) activity positively regulates Esp expression in osteoblasts. […] Thus, decreasing sympathetic activity should lead to a decrease in Esp expression and thereby to an increase in the undercarboxylated, active form of osteocalcin.

[4] = hydroxyapatite competition studies; cited from earlier work

Compound: 1-36 fragment of uncarboxylated osteocalcin: Recombinant truncated mouse osteocalcin (1-36), ten amino acids deleted from the C-terminal end (YLGASVPSPDPLEPTREQCELNPACDELSDQYGLKT; not fully specified; ends and bridges not checked; UniProt P86546 50-85, looked up, fragment)
increase of Adiponectin expression ([1]; wild type adipocytes treated for 4 hours, real time PCR, vs vehicle): ~1.8 fold
potency in inducing adiponectin expression compared with native osteocalcin ([1]; wt adipocytes, 4 hours, in vitro): as potent as native osteocalcin

percentage of osteocalcin bound to HA ([2]; conditioned medium of warfarin-treated osteoblasts vs vehicle (FIG. 7I)): marked decrease
levels of undercarboxylated osteocalcin produced by osteoblasts ([2]; warfarin-treated vs vehicle-treated osteoblasts (FIG. 7I)): elevated levels
Compound: CC(=O)CC(c1ccccc1)c1c(O)c2ccccc2oc1=O (stereo not drawn) [warfarin]
induction of adiponectin expression in co-cultured adipocytes [3]: significantly higher extent

expression of gamma-carboxylase (ggcx) (wild type osteoblasts): did not increase expression
Compound: CC(C)NCC(O)c1ccc(O)c(O)c1 (stereo not drawn) [isoproterenol]
expression of osteocalcin (wild type osteoblasts): did not increase expression
expression of vkor (wild type osteoblasts): did not increase expression
increase of Esp expression (wild type osteoblasts; at 8 hours): remains steady
increase of Esp expression (wild type osteoblasts; by 4 hours): about 80%

Compound: carboxylated osteocalcin: commercially available carboxylated osteocalcin (Immunotopics) (YLYQWLGAPVPYPDPL[Gla′]PRR[Gla′]VC[Gla′]LNPDCDELADHIGFQEAYRRFYGPV; disulfide 23-29; ends not checked; also: carboxylated (Gla), sites not given here; UniProt P02818 52-100, looked up) [reference compound]
induction of adiponectin expression ([1]; WT adipocytes, 1 ng/ml (FIG. 7K)): failed to induce adiponectin expression

Compound: Decarboxylated osteocalcin: thermally decarboxylated osteocalcin of the literature (YLYQWLGAPVPYPDPLEPRREVCELNPDCDELADHIGFQEAYRRFYGPV; not fully specified; ends and bridges not checked; UniProt P02818 52-100, looked up)
competition with ^125I-labeled osteocalcin bound to hydroxyapatite [4]: fail to compete
